Molecular target: Receptor-interacting serine/threonine-protein kinase 2 (Homo sapiens, UniProt O43353)
Experiment: Inhibition of RIPK2 (unknown origin) incubated for 1 hr by Lanthascreen TR-FRET assay

Chain of Receptor-interacting serine/threonine-protein kinase 2 (O43353 whole entry): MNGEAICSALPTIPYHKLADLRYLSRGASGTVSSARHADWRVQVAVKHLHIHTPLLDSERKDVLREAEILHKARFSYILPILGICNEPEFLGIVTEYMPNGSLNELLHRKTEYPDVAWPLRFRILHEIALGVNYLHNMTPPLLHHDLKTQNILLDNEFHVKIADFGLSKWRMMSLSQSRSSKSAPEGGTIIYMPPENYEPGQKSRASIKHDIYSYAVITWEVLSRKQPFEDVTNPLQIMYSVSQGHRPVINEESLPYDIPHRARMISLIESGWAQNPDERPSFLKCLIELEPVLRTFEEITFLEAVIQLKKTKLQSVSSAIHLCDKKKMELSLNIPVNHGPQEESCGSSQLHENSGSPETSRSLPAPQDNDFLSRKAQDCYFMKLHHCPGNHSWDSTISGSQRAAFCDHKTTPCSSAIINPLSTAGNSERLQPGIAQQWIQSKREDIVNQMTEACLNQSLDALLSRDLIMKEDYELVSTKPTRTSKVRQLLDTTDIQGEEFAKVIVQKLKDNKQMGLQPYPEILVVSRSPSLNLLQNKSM

SMILES | IC50
CC1NCCC1c1cc2c(Nc3cc4ncsc4cc3F)ccnc2s1 (stereo unspecified) | ≤ 10 nM
C1=C(c2cc3c(Nc4ccc5scnc5c4)ccnc3s2)C2(CCOCC2)NC1 | ≤ 10 nM
CC1NCCC=C1c1cc2c(Nc3ccc4scnc4c3)ccnc2s1 (stereo unspecified) | ≤ 10 nM
C1=C(c2cc3c(Nc4ccc5scnc5c4)ccnc3s2)CCNCC1 | ≤ 10 nM

Continued, values first:

IC50 | SMILES
≤ 10 nM | CC1C(c2cc3c(Nc4ccc5scnc5c4)c(F)cnc3s2)CCCN1C (stereo unspecified)
≤ 10 nM | C1=C(c2cc3c(Nc4ccc5scnc5c4)ccnc3s2)C2(CCOC2)NC1 (stereo unspecified)

From ChEMBL document CHEMBL4665910, “Novel Thienopyridines as RIPK2 Inhibitors for Treating Inflammatory Bowel Disease” (ACS Med Chem Lett, 2020)
